Here are results for seven compounds from patent US6544989B2, “Benzazoles: benzoxazole, benzthiazole and benzimidazole derivatives” (Syngenta Limited, priority 1998, dated 2003).

One series relates to Plasmopara viticola. Description: Fungicidal test, Plasmopara viticola (PLASVI) on vines, PRCO. It is filed as in vivo.
For another series, the system named is Uncinula necator. The series can be described thus: Fungicidal test, Uncinula necator (UNCINE) on vines, PRCO. It is filed as in vivo. Particulars: METHOD 2 (unbanded).
The subject of series [1] is Phytophthora infestans lycopersici. It is filed as in vivo.
The subject of another series is Venturia inaequalis. The series can be described thus: Fungicidal test, Venturia inaequalis (VENTIN) on apples, PRCO. The note with it: METHOD 2 (unbanded). It is filed as in vivo.
Series [2] has as its system Erysiphe graminis f.sp. tritici. Description: Fungicidal test, Erysiphe graminis f.sp. tritici (ERYSGT) on wheat, PRCO. It is filed as in vivo. The note with it: for ERYSGT 1 d Prot/Foir PRCO: METHOD 2 (unbanded).
The test system of the next series is Septoria nodorum. The series can be described thus: Fungicidal test, Septoria nodorum (LEPTNO) on wheat, PRCO. It is filed as in vivo.
The subject of a further series is Puccinia recondita. The series can be described thus: Fungicidal test, Puccinia recondita (PUCCRT) on wheat, PRCO. The class given is in vivo.
For a further series, the system named is Rhizoctonia solani. Description: Fungicidal test, Rhizoctonia solani (RHIZSO) on rice, PRCO. Particulars: METHOD 2 (unbanded). The class given is in vivo.
For a further series, the system named is Musca domestica. Particulars: 500 ppm by weight; knockdown assessed 15 minutes after treatment.
The next series relates to Meloidogyne incognita. Description: Nematode test, J2 infective juveniles of Meloidogyne incognita, mortality. The note with it: 12.5 ppm; J2 infective juveniles suspended in solution; mortality after three days.
The next series deals with Pyricularia oryzae. It is filed as in vivo. Particulars: METHOD 2 (unbanded).

Where two headings read alike, the source gives them in different places. Marks after values point to notes of the source that are not given here.

Protocol for Meloidogyne incognita: (§1) The activities of individual compounds of formula (I) were determined using a variety of pests. With the exception of nematodes, the pests were treated with a liquid composition containing 500 parts per million (ppm) by weight of a compound unless otherwise stated. Each composition was made by dissolving the compound in an acetone and ethanol (50:50 by volume) mixture and diluting the solution with water containing 0.05% by volume of a wetting agent, SYNPERONIC NP8, until the liquid composition contained the required concentration of the compound.
The test procedure for nematodes involved dissolving the compound in an acetone and ethanol (50:50 by volume) mixture and diluting the solution with water to obtain a final concentration of the compound of 12.5 ppm. J2 infective juveniles of Meloidogyne incognita were suspended in the solution in a glass vial and mortality assessed after a period of three days.
Protocol for Musca domestica: as §1
The test procedure adopted with regard to each pest, except nematodes, was essentially the same and composed supporting a number of the pests on a medium which was usually a substrate, a host plant or a foodstuff on which the pests feed, and treating either or both the medium and the pests with a composition. Pest mortality was assessed usually between three and five days after treatment Knockdown of housefly (Musca domestica) was assessed 15 minutes after treatment

On to `Cc1nsc(NC(=O)Cc2ccc3oc(-c4ccccc4)nc3c2)c1Cl` [248(A3)], for which, in the series with Plasmopara viticola (METHOD 1 (values marked *)), the “PLASVI 1 d Prot/Foir PRCO” value is 97*. Moreover, the “UNCINE 1 d Prot/Foir PRCO” value with Uncinula necator stood at 7. For the same compound, the “PHYTIN 1 d Prot/Foir PRCO” value in series [1] (METHOD 1 (values marked *)) is listed as 17*. Further, the “VENTIN 1 d Prot/Foir PRCO” value in the series on Venturia inaequalis worked out at 100. Besides, the “ERYSGT 6 hr Prot/Foir PRCO” value in [2] (6 hr Prot/Foir, METHOD 1 (values marked *)) is on record as 0*. In the series on Septoria nodorum (METHOD 1 (values marked *)), the “LEPTNO 1 d Prot/Foir PRCO” value is 0*. In addition, the “PUCCRT 1 d Prot/Foir PRCO” value in the series on Puccinia recondita (METHOD 1 (values marked *)) is listed as 100*. In addition, the “RHIZSO 1 d Prot/Foir PRCO” value in the series with Rhizoctonia solani came to 7. For the same compound, the “MUSCDO AC = Musca domestica (knockdown), score” value (shortened to “MUSCDO AC = Musca domestica”) with Musca domestica is 0 (0 indicates less than 40% mortality). For the same compound, the “MELGIN = Meloidogyne incognita, grading of mortality (score)” value (shortened to “MELGIN = Meloidogyne incognita, grading”) with Meloidogyne incognita is given as 0 (0 indicates less than 40% mortality).

For `CSCCc1nc2cc(CC(=O)Nc3snc(C)c3Cl)ccc2o1` [172(A3)], the “PLASVI 1 d Prot/Foir PRCO” value in the series on Plasmopara viticola (METHOD 2 (unbanded)) was found to be 44. In addition, the “UNCINE 1 d Prot/Foir PRCO” value in the series with Uncinula necator amounted to 36. For the same compound, the “PHYTIN 1 d Prot/Foir PRCO” value in [1] (METHOD 2 (unbanded)) worked out at 100. Also, in the series on Venturia inaequalis, the “VENTIN 1 d Prot/Foir PRCO” value is given as 69. Further, the “ERYSGT 1 d Prot/Foir PRCO” value in series [2] turned out to be 40. For the same compound, in the series on Septoria nodorum (METHOD 2 (unbanded)), the “LEPTNO 1 d Prot/Foir PRCO” value was 10. Moreover, the “PUCCRT 1 d Prot/Foir PRCO” value with Puccinia recondita (METHOD 2 (unbanded)) turned out to be 96. Besides, the “PYRIOR 1 d Prot/Foir PRCO” value with Pyricularia oryzae was found to be 19. The “MUSCDO AC = Musca domestica” value in the series on Musca domestica is given as 5 (5 indicates 40-79% mortality). For the same compound, in the series on Meloidogyne incognita, the “MELGIN = Meloidogyne incognita, grading” value is on record as 5 (5 indicates 40-79% mortality).

For `Cc1nsc(NC(=O)Cc2ccc3oc(C(C)(C)CCl)nc3c2)c1Cl` [98(A3)], the “PLASVI 1 d Prot/Foir PRCO” value with Plasmopara viticola (METHOD 2 (unbanded)) was 99. For the same compound, the “UNCINE 1 d Prot/Foir PRCO” value in the series with Uncinula necator was determined as 100. Also, in series [1] (METHOD 2 (unbanded)), the “PHYTIN 1 d Prot/Foir PRCO” value stood at 100. For the same compound, the “VENTIN 1 d Prot/Foir PRCO” value in the series on Venturia inaequalis is recorded as 96. For the same compound, the “ERYSGT 1 d Prot/Foir PRCO” value in series [2] is on record as 98. In addition, the “LEPTNO 1 d Prot/Foir PRCO” value in the series on Septoria nodorum (METHOD 2 (unbanded)) turned out to be 30. In addition, in the series with Puccinia recondita (METHOD 2 (unbanded)), the “PUCCRT 1 d Prot/Foir PRCO” value is 98. Further, the “PYRIOR 1 d Prot/Foir PRCO” value in the series on Pyricularia oryzae is 81. Further, the “MUSCDO AC = Musca domestica” value in the series with Musca domestica is 5 (5 indicates 40-79% mortality). For the same compound, in the series on Meloidogyne incognita, the “MELGIN = Meloidogyne incognita, grading” value is 0 (0 indicates less than 40% mortality).

In the case of `CCCCc1nc2cc(CC(=O)Nc3snc(C)c3Cl)ccc2o1` [5(A3)], in the series with Plasmopara viticola (METHOD 2 (unbanded)), the “PLASVI 1 d Prot/Foir PRCO” value is 39. Moreover, the “UNCINE 1 d Prot/Foir PRCO” value in the series on Uncinula necator is on record as 72. The “PHYTIN 1 d Prot/Foir PRCO” value in series [1] (METHOD 2 (unbanded)) came out at 100. In addition, the “VENTIN 1 d Prot/Foir PRCO” value in the series with Venturia inaequalis was −10. Besides, the “ERYSGT 1 d Prot/Foir PRCO” value in series [2] amounted to 40. Moreover, in the series on Septoria nodorum (METHOD 2 (unbanded)), the “LEPTNO 1 d Prot/Foir PRCO” value worked out at 30. Also, the “PUCCRT 1 d Prot/Foir PRCO” value in the series on Puccinia recondita (METHOD 2 (unbanded)) is on record as 88. The “PYRIOR 1 d Prot/Foir PRCO” value with Pyricularia oryzae came out at 31. Also, the “MUSCDO AC = Musca domestica” value with Musca domestica was 0 (0 indicates less than 40% mortality). In the series with Meloidogyne incognita, the “MELGIN = Meloidogyne incognita, grading” value is 0 (0 indicates less than 40% mortality).

In the case of `Cc1nsc(NC(=S)Cc2ccc3oc(CC(C)(C)C)nc3c2)c1Cl` [15(V3)], the “UNCINE 1 d Prot/Foir PRCO” value in the series with Uncinula necator is given as 100. The “PHYTIN 1 d Prot/Foir PRCO” value in series [1] (METHOD 2 (unbanded)) is on record as 100. In the series with Venturia inaequalis, the “VENTIN 1 d Prot/Foir PRCO” value is on record as 10. Further, the “ERYSGT 1 d Prot/Foir PRCO” value in series [2] is 87. The “LEPTNO 1 d Prot/Foir PRCO” value with Septoria nodorum (METHOD 2 (unbanded)) is −2. In addition, in the series with Puccinia recondita (METHOD 2 (unbanded)), the “PUCCRT 1 d Prot/Foir PRCO” value worked out at 100. Besides, the “PYRIOR 1 d Prot/Foir PRCO” value in the series on Pyricularia oryzae is on record as 100. Besides, in the series with Rhizoctonia solani, the “RHIZSO 1 d Prot/Foir PRCO” value is recorded as 0. The “MUSCDO AC = Musca domestica” value with Musca domestica was 0 (0 indicates less than 40% mortality). The “MELGIN = Meloidogyne incognita, grading” value in the series on Meloidogyne incognita is recorded as 0 (0 indicates less than 40% mortality).

For the compound `Cc1nsc(NC(=O)Cc2ccc3oc(C4CCCC4)nc3c2)c1Cl` [28(A3)], the “PLASVI 1 d Prot/Foir PRCO” value in the series on Plasmopara viticola (METHOD 2 (unbanded)) came to 0. Besides, in the series on Uncinula necator, the “UNCINE 1 d Prot/Foir PRCO” value is reported as 9. Besides, the “PHYTIN 1 d Prot/Foir PRCO” value in series [1] (METHOD 2 (unbanded)) was 100. In the series with Venturia inaequalis, the “VENTIN 1 d Prot/Foir PRCO” value is on record as 53. In addition, the “ERYSGT 1 d Prot/Foir PRCO” value in [2] is on record as 46. Besides, the “LEPTNO 1 d Prot/Foir PRCO” value in the series with Septoria nodorum (METHOD 2 (unbanded)) was 20. Further, the “PUCCRT 1 d Prot/Foir PRCO” value in the series with Puccinia recondita (METHOD 2 (unbanded)) is given as 86. Besides, the “PYRIOR 1 d Prot/Foir PRCO” value in the series on Pyricularia oryzae was 81. Further, in the series with Musca domestica, the “MUSCDO AC = Musca domestica” value is 5 (5 indicates 40-79% mortality). The “MELGIN = Meloidogyne incognita, grading” value in the series with Meloidogyne incognita is listed as 0 (0 indicates less than 40% mortality).

As to `CC=C(C)c1nc2cc(CC(=O)Nc3snc(C)c3Cl)ccc2o1` [47(A3)], the “PLASVI 1 d Prot/Foir PRCO” value in the series on Plasmopara viticola (METHOD 2 (unbanded)) came out at 92. Also, the “UNCINE 1 d Prot/Foir PRCO” value in the series with Uncinula necator was determined as 98. The “VENTIN 1 d Prot/Foir PRCO” value in the series on Venturia inaequalis worked out at 37. The “ERYSGT 1 d Prot/Foir PRCO” value in series [2] amounted to 86. Moreover, the “LEPTNO 1 d Prot/Foir PRCO” value with Septoria nodorum (METHOD 2 (unbanded)) is 63. Further, the “PUCCRT 1 d Prot/Foir PRCO” value in the series with Puccinia recondita (METHOD 2 (unbanded)) turned out to be 99. For the same compound, the “PYRIOR 1 d Prot/Foir PRCO” value in the series with Pyricularia oryzae came to 88. Moreover, the “RHIZSO 1 d Prot/Foir PRCO” value in the series on Rhizoctonia solani was 0. For the same compound, the “MUSCDO AC = Musca domestica” value in the series on Musca domestica was 0 (0 indicates less than 40% mortality). In the series on Meloidogyne incognita, the “MELGIN = Meloidogyne incognita, grading” value is given as 0 (0 indicates less than 40% mortality).
